In ChEMBL document CHEMBL1153003, “Synthesis and affinity to DNA of phenylbenzoimidazoles and benzoimidazo[1,2-c]quinazolines” (Eur J Med Chem, 2009):

System: Calf thymus DNA
Assay: Displacement of ethidium bromide from calf thymus DNA
Type: nucleic-acid assay
Settings: Bos taurus

Work on CC1CCCCN1CCC(=O)Nc1ccccc1-c1nc2ccccc2[nH]1 (configuration not stated) yielded a logC50 of -2.66 and a logKA of 4.76.
CN1CCN(CCC(=O)Nc2ccccc2-c2nc3ccccc3[nH]2)CC1 showed a logC50 of -2.86 and a logKA of 4.96.
CN1CCN(CCc2nc3ccccc3c3nc4ccccc4n23)CC1 was tested, and the logC50 was -4.18 and the logKA was 6.28.
c1ccc2c(c1)nc(CCN1CCOCC1)n1c3ccccc3nc21 showed a logC50 of -4.12 and a logKA of 6.22.
Work on CC1CCCCN1CCc1nc2ccccc2c2nc3ccccc3n12 (configuration not stated) yielded a logC50 of -4.17 and a logKA of 6.27.
O=C(CN1CCOCC1)Nc1ccccc1-c1nc2ccccc2[nH]1 gave a logC50 of -2.58 and a logKA of 4.68.
In the case of CC1CCCCN1CC(=O)Nc1ccccc1-c1nc2ccccc2[nH]1 (configuration not stated), the logC50 is reported as -2.66 and the logKA is reported as 4.76.
With CC1CCN(CCc2nc3ccccc3c3nc4ccccc4n23)CC1 the logC50 was -4.23 and the logKA was 6.33.
O=C(CN1CCCCC1)Nc1ccccc1-c1nc2ccccc2[nH]1 showed a logC50 of -2.65 and a logKA of 4.75.
Compound O=C(CCN1CCOCC1)Nc1ccccc1-c1nc2ccccc2[nH]1 has a logC50 of -2.92 and a logKA of 5.02.
In the case of CN1CCN(CC(=O)Nc2ccccc2-c2nc3ccccc3[nH]2)CC1, the logC50 is reported as -2.32 and the logKA is reported as 4.42.
In the case of CC1CCCCN1Cc1nc2ccccc2c2nc3ccccc3n12 (configuration not stated), the logC50 is reported as -3.65 and the logKA is reported as 5.75.
Work on CC1CCN(Cc2nc3ccccc3c3nc4ccccc4n23)CC1 yielded a logC50 of -3.83 and a logKA of 5.93.
For CC1CCN(CC(=O)Nc2ccccc2-c2nc3ccccc3[nH]2)CC1, the logC50 was -2.84 and the logKA was 4.94.
Compound c1ccc2c(c1)nc(CCN1CCCCC1)n1c3ccccc3nc21 has a logC50 of -4.03 and a logKA of 6.13.
Work on CCN(CC)CCOc1ccc2c(c1)C(=O)c1cc(OCCN(CC)CC)ccc1-2 yielded a logC50 of -4.2 and a logKA of 6.3.
Work on O=C(CCN1CCCCC1)Nc1ccccc1-c1nc2ccccc2[nH]1 yielded a logC50 of -2.8 and a logKA of 4.9.
Work on CC1CCN(CCC(=O)Nc2ccccc2-c2nc3ccccc3[nH]2)CC1 yielded a logC50 of -2.83 and a logKA of 4.93.
c1ccc2c(c1)nc(CN1CCCCC1)n1c3ccccc3nc21 showed a logC50 of -3.84 and a logKA of 5.94.
For c1ccc2c(c1)nc(CN1CCOCC1)n1c3ccccc3nc21, the logC50 was -3.44 and the logKA was 5.54.
With CN1CCN(Cc2nc3ccccc3c3nc4ccccc4n23)CC1 the logC50 was -3.72 and the logKA was 5.82.
